In patent US5420131A, “Cyanomethylpyridine derivatives” (J. Uriach & Cia, S.A., priority 1993, dated 1995) one finds IC50 and ED50 data, which are given here for nine compounds.

Assay [1] relates to platelet aggregation induced by PAF. As to the kind of experiment: Inhibition of platelet aggregation induced by PAF (rabbit platelet rich plasma, Born nephelometric technique). It is filed as cell-based, male New Zealand albino rabbits. To be noted: Oryctolagus cuniculus, rabbit PRP, 3×10^5 platelets/mm^3, PAF (C18) 15 nM. The method, then:
Inhibition of platelet aggregation induced by PAF.
Blood is obtained by cardiac puncture of male New Zealand albino rabbits (b.w. 2-2.5 Kg) and coagulation is prevented by adding 1 part of 3.16% sodium citrate dihydrate in 9 parts of blood. Platelet rich plasma (PRP) is prepared by centrifuging the blood at 250×g for 10 min. at 4° C. and then it is diluted with platelet poor plasma (PPP) obtained by further centrifuging at 3000×g for 10 min. The platelet count is adjusted to 3×10^5 /mm^3. Platelet aggregation induced by PAF (C18, prepared in our laboratory) (15 nM) is determined by the Born nephelometric technique (J. Physiol., 1962, 162, 67) using an aggregometer Chrono-log 500. The activities of the inhibitors are expressed as the IC50 value, that is to say the concentration of the drug needed to inhibit platelet aggregation by 50%.

Assay [2] deals with hypotensive effect induced by PAF in normotense rats. Kind of assay: Inhibition of the hypotensive effect induced by PAF in normotense rats. It is filed as in vivo, male Sprage Dawley rats. To be noted: Rattus norvegicus, iv, 0.05 h; i.v., test compound via femoral vein 3 min. before PAF 0.5 mcg/Kg i.v.; anaesthetized rats; read-out: ID50 (inhibition of PAF-induced hypotension). The method, then: Inhibition of the hypotensive effect induced by PAF in normotense rats.
Male Sprage Dawley rats (b.w. 180-220 g) anaesthetized with sodium pentobarbital (50 mg/Kg, i.p. 1 mL/100 g) are used. In order to measure the arterial pressure, a polyethylene catheter is introduced into the carotid artery. The arterial pressure is recorded with the help of a transducer coupled to a R611 Beckman polygraph. The test compounds are administered through the femoral vein 3 min. before PAF injection (0.5 mcg/Kg, i.v.). Control animals receive only the vehicle.

In the case of `Cc1ncccc1C(C#N)N1CCN(C(=O)Cc2ccc(OCc3ccc4ccccc4n3)cc2)CC1` (stereo not drawn) [Compound 1, 1-[p-(2-Quinolylmethoxy)phenylacetyl]-4-[(2-methyl-3-pyridyl)cyanomethyl]piperazine], the IC50 – broadly, the point on the concentration scale where inhibition reaches its midpoint – in assay [1] worked out at 6700 nM. The ED50 in assay [2] was found to be 0.69 mg/kg.

Consider `Cc1ncccc1C(C#N)N1CCN(C(=O)CNC(c2ccccc2)c2ccc(OCc3ccc4ccccc4n3)cc2)CC1` (stereo not drawn) [Compound 2], for which, in assay [1], the IC50 amounted to 1800 nM. The ED50 in assay [2] was 0.057 mg/kg.

The compound `Cc1ncccc1C(C#N)N1CCN(C(=O)CC(NC(=O)Cc2ccc(OCc3ccc4ccccc4n3)cc2)c2ccccc2)CC1` (stereo not drawn) [Compound 3, 1-[3-[N-[p-(2-quinolylmethoxy)phenylacetyl]]amino-3-phenylpropionyl]-4-[(2-methyl-3-pyridiyl)cyanomethyl]piperazine] gave an IC50 in assay [1] of 80 nM. Also, the ED50 in assay [2] came to 0.036 mg/kg.

As for `Cc1ncccc1C(C#N)N1CCN(C(=O)CC(NC(=O)Cc2cccc(OCc3ccc4ccccc4n3)c2)c2ccccc2)CC1` (stereo not drawn) [Compound 4, 1-[3-[N-[3-(2-quinolylmethoxy)phenylacetyl]]amino-3-phenylpropionyl]-4-[(2-methyl-3-pyridyl)cyanomethyl]piperazine], the IC50 in assay [1] came out at 12 nM. In addition, the ED50 in assay [2] came to 0.041 mg/kg.

Regarding `Cc1ncccc1C(C#N)N1CCN(C(=O)CC(NC(=O)c2ccc(OCc3ccc4ccccc4n3)cc2)c2ccccc2)CC1` (stereo not drawn) [Compound 5, 1-[3-[N-[p-(2-quinolylmethoxy)benzoyl]]amino-3-phenylpropionyl]-4-[(2-methyl-3-pyridyl)cyanomethyl]piperazine], half-maximal inhibition in assay [1] (IC50) was put at 680 nM. The ED50 in assay [2] was 0.21 mg/kg.

Consider `Cc1ncccc1C(C#N)N1CCN(C(=O)CC(NC(=O)c2cccc(OCc3ccc4ccccc4n3)c2)c2ccccc2)CC1` (stereo not drawn) [Compound 6, 1-[3-[N-[3-(2-quinolylmethoxy)benzoyl]]amino-3-phenylpropionyl]-4-[(2-methyl-3-pyridyl)cyanomethyl]piperazine], for which the midpoint of inhibition in assay [1], the IC50, lay at 740 nM. Further, the ED50 in assay [2] was determined as 0.16 mg/kg.

In turn, `N#CC(c1cccnc1)C1CCN(C(=O)CC(NC(=O)c2ccc(OCc3ccc4ccccc4n3)cc2)c2ccccc2)CC1` (stereo not drawn) [Compound 7, 1-[3-[N-[p-(2-quinolylmethoxy)benzoyl]]amino-3-phenylpropionyl]-4-(3-pyridylcyanomethyl)piperidine] yielded an IC50 in assay [1] of 55 nM. The ED50 in assay [2] amounted to 0.25 mg/kg.

The compound `N#CC(c1cccnc1)C1CCN(C(=O)[C@H](NC(=O)Cc2ccc(OCc3ccc4ccccc4n3)cc2)c2ccccc2)CC1` (stereo partly drawn) [Compound 10, 1-[N-[p-(2-quinolylmethoxy)phenylacetyl]-D-2-phenylglycinyl]-4-(3-pyridylcyanomethyl)piperidine] registered an IC50 in assay [1] of 550 nM. In assay [2], the ED50 turned out to be 0.12 mg/kg.

`N#CC(c1cccnc1)C1CCN(C(=O)[C@H](NC(=O)c2cccc(OCc3ccc4ccccc4n3)c2)c2ccccc2)CC1` (stereo partly drawn) [Compound 13, 1-[N-[3-(2-quinolylmethoxy)benzoyl]-D-2-phenylglycinyl]-4-(3-pyridylcyanomethyl)piperidine] displayed an IC50 in assay [1] of 660 nM. Besides, the ED50 in assay [2] is 0.21 mg/kg.
